{"source": "patent US20160160189A1", "about": "“Truncated Constructs of RIPK3 and Related Uses” (ST. JUDE CHILDREN'S RESEARCH HOSPITAL, priority 2013, published 2016)", "assay_type_in_all_cases": "cell-based, murine", "key": {"[1]": {"tested_on": "RIPK3 necrosome complex (RIPK1, caspase-8)", "assay": "Anti-FLAG immunoprecipitation of necrosome complexes", "details": "RIPK3-1xFv, AP1 30 minutes; zVAD 50 μM, Nec1 30 μM", "protocol": "Immunoprecipitation of necrosome complexes were carried out using rabbit anti-FLAG antibodies, and TruBlot IP reagents (Rockland Immunochemicals) to eliminate non-specific signals from immunoglobulin heavy and light chains. Briefly, cell lines were treated as indicated and lysed in NP40 buffer (30 mM Tris, 150 mM NaCl, and 1% NP40) supplemented with protease inhibitors. Twenty micrograms of each sample were reserved for “input,” while 500 μg of total protein from each sample were immunoprecipitated with 0.5 μg antibody conjugated to 30 μL TruBlot anti-Rabbit IgG beads Immunocomplexes were washed 4 times in NP40 buffer, eluted by boiling, then run on western blot. Western blots were analyzed using standard primary antibodies, but TruBlot anti-Rabbit and anti-Mouse HRP-conjugated 14 secondary antibodies were used. A standard anti-Rat-HRP secondary was used to detect caspase-8."}, "[2]": {"tested_on": "NIH-3T3 cells expressing RIPK3^ΔC-2xFv", "assay": "AP1-induced RIPK3 oligomerization cell death, IncuCyte imaging", "details": "zVAD 50 μM, Nec1 30 μM", "excerpt": "(§1) Consequently, two Fv domains were attached to the C-terminus of RIPK3, creating a RIPK3-2xFv construct, with the goal of promoting AP1-induced crosslinking and oligomerization independent of the RHIM domain. See, FIG. 12A. […] Compare, FIGS. 16A and 15A, respectively. […] Cells expressing this RHIM-deficient RIPK3^ΔC-2xFv construct were nonresponsive to TNF+zVAD, previously reported to be dependent on RIPK1 RHIM/RIPK3 RHIM interactions. See, FIG. 13G. […] See, FIG. 16C and FIG. 16D, respectively. […] See, FIG. 16E. […] See, FIG. 16F.\n(§2) Cell death assays were carried out using a 2-color IncuCyte Zoom in-incubator imaging system (Essen Biosciences.) Briefly, this system allows fully automated imaging of cells at set intervals in phase contrast as well as both red and green fluorescent channels. Cell death assays were carried out by treating cells with death-inducing compounds in 24 well tissue culture vessels (100,000 cells/well), in the presence of 100 nM of the cell-impermeable DNA binding fluorescent dyes Sytox Green (Life Technologies 57020) or Yoyo-3 (Y3606), which are excluded from healthy cells but rapidly enter dying cells upon membrane permeabilization, in a manner analogous to propidium iodide.\n(§3) Resulting images were analyzed using the software package supplied with the IncuCyte imager, which allows precise analysis of the number of Sytox Green or Yoyo-3 positive cells present in each image. For each experiment, a minimum of three separate wells were treated with each experimental condition, and a minimum of 4 image fields were assessed per well. Percent cell death was calculated by treating a minimum of three distinct wells in each experiment with 100 nM of the cell permeable fluorescent dye Syto Green (S7559), which allows quantification of the total number of cells present in each field. Dead cell events acquired via Sytox Green or Yoyo-3 staining were divided by this total cell number to yield percent cell death at each timepoint. Error bars represent standard deviation from the mean of a minimum of three independent wells. Each result depicted is representative of at least 4 distinct experiments, each of which contained at least 3 technical replicates."}, "[3]": {"tested_on": "NIH-3T3 cells expressing RIPK3-2xFv", "assay": "AP1-induced RIPK3 oligomerization cell death, IncuCyte imaging", "details": "AP1; zVAD 50 μM, Nec1 30 μM", "excerpt": "as §1, §2, §3"}}, "note": "Peptide text beside a SMILES is read from it. * marks the point of attachment. Cbz = O=C(OCc1ccccc1)*; CH2F = FC*", "data": [{"smiles": "CN1C(=O)C(Cc2c[nH]c3ccccc23)NC1=S", "note": "(stereo not drawn) [necrostatin-1, Necrostatin-1]", "values": [{"measurement": "effect of inhibitor on association of RIPK1 and caspase-8 with the RIPK3 complex", "setting": "[1]", "value": "eliminated formation of stable RIPK1- and caspase-8 containing complexes"}, {"measurement": "effect of inhibitor on magnitude or kinetics of cell death", "setting": "[2]", "value": "did not alter magnitude or kinetics of cell death"}, {"measurement": "effect of inhibitor on magnitude or kinetics of cell death", "setting": "[3]", "value": "did not alter magnitude or kinetics of cell death"}]}, {"smiles": "COC(=O)C[C@H](NC(=O)[C@H](C)NC(=O)[C@@H](NC(=O)OCc1ccccc1)C(C)C)C(=O)CF", "note": "[zVAD] (Cbz-Val-Ala-Asp(OMe)-CH2F)", "values": [{"measurement": "effect of inhibitor on association of RIPK1 and caspase-8 with the RIPK3 complex", "setting": "[1]", "value": "increased association of these proteins"}, {"measurement": "effect of inhibitor on magnitude or kinetics of cell death", "setting": "[2]", "value": "did not alter magnitude or kinetics of cell death"}, {"measurement": "effect of inhibitor on magnitude or kinetics of cell death", "setting": "[3]", "value": "did not alter magnitude or kinetics of cell death"}]}]}
